In US20080242546A1, “Synergistic herbicidal composition containing chloroacetanilides and picolinic acids” (Dow AgroSciences LLC, priority 2007, published 2008):

How the values were obtained:
CHEAL = test: Field trial in field corn, early postemergence weed control, visual rating; format: in vivo, chenopodium album L; conditions: early post
Experimental: (§1) Field trials were established to evaluate weed control with herbicides applied at an early postemergence timing in field corn. Each trial was conducted as a randomized complete block design with three replications of each treatment in plots that ranged in size from 2.5×6.5 meters to 3.0×8.0 meters. Herbicide treatments in these trials included: • acetochlor at 1680 g/ha • clopyralid+picloram at 93.5+23.5 g/ha • clopyralid+picloram+aminopyralid at 72+24+12 g/ha • acetochlor+clopyralid+picloram at 1680+93.5+23.5 g/ha • acetochlor+clopyralid+picloram+aminopyralid at 1680+72+24+12 g/ha These herbicide treatments were broadcast sprayed postemergence over 1 to 3 leaf corn and 1 to 2 leaf weeds. The acetochlor formulation being used also contained furilazole safener.
(§2) The degree of weed control was visually evaluated and recorded at 40 to 71 days after application as a percent of weed control. Percent control is the total injury to the plants due to all factors including: stunting, malformation, chlorosis, necrosis, inhibition of emergence, and other types of plant injury. The control ratings range from 0 to 100 percent, where 0 represents no injury and 100 represents complete kill.
(§3) The Colby method represents a direct approach to measuring the synergistic activity of two herbicides.

POLAV = test: as above; format: in vivo, polygonum aviculare; conditions: early post
Experimental: as §1, §2, §3

POLCO = test: as above; format: in vivo, polygonum convolvulus L; conditions: early post
Experimental: as §1, §2, §3

VIOAR = test: Field trial in oilseed rape, preemergence weed control, visual rating; format: in vivo, viola arvensis L; conditions: preemergence to weeds
Experimental: (§4) E=X+Y-(XY/100), […] Additional field trials were established to evaluate weed control with herbicides applied at an […] timing in oilseed rape, prior to any weed emergence. Each trial was conducted as a randomized complete block design with three replications of each treatment in plots that ranged in size from 2.5×5.o meters to 3.0×6.0 meters. […] The degree of weed control was visually evaluated and recorded at 55 to 68 days after application as a percent of weed control. Percent control is the total injury to the plants due to all factors including: stunting, malformation, chlorosis, necrosis, inhibition of emergence, and other types of plant injury.

PAPRH = test: as above; format: in vivo, papaver rhoeas L; conditions: preemergence to weeds
Experimental: as §4

GALAP = test: as above; format: in vivo, galium aparine L; conditions: preemergence to weeds
Experimental: as §4

[1] = 1680 g ai/ha, 40 to 71 days after application
[2] = 750 g ai/ha, 55 to 68 days after application

SMILES | control of CHEAL in words (synergistic action / acceptable control) (CHEAL) | percent of weed control (POLAV; [1]) [%] | control of POLAV in words (synergistic action / acceptable control) (POLAV) | percent of weed control (POLCO; [1]) [%] | control of POLCO in words (synergistic action / acceptable control) (POLCO) | percent of weed control (VIOAR; [2]) [%] | control of VIOAR in words (synergistic action / acceptable control) (VIOAR) | percent of weed control (PAPRH; [2]) [%] | control of PAPRH in words (synergistic action / acceptable control) (PAPRH) | percent of weed control (GALAP; [2]) [%] | control of GALAP in words (synergistic action / acceptable control) (GALAP)
CCOCN(C(=O)CCl)c1c(C)cccc1CC [acetochlor, 2-chloro-N-(ethoxymethyl)-N-(2-ethyl-6-methylphenyl)acetamide] | did not provide acceptable control | 58 | did not provide acceptable control | 52 | did not provide acceptable control | – | – | – | – | – | –
Cc1cccc(C)c1N(Cn1cccn1)C(=O)CCl [metazachlor, 2-chloro-N-(2,6-dimethylphenyl)-N-(1H-pyrazol-1-ylmethyl)acetamide] | – | – | – | – | – | 0 | did not provide acceptable control | 10 | did not provide acceptable control | 53 | did not provide acceptable control
